Experimental data taken from patent US20240116845A1, “INDENE COMPOUNDS, PHARMACEUTICAL COMPOSITIONS THEREOF, AND THEIR THERAPEUTIC APPLICATIONS” (NucMito Pharmaceuticals Co., Ltd., priority 2021, published 2024).

Tests used:
Type in all cases: cell-based
SW480 (colon cancer) = assay: Antiproliferative activity, CCK-8 cell viability; conditions: Homo sapiens, 72 h, read-out: Inhibition of Cancerous Cells, SW480; for inhibition at 3.3 µM: compound concentration of 3.3 μM; for inhibition at 10 µM: compound concentration of 10 μM; for inhibition at 30 µM: compound concentration of 30 μM
In short: (§1)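 Viability relative to DMSO controls came from CCK-8 absorbance at 450 nm after 72 h exposure at 37°C. Compound concentrations were 3.3, 10 or 30 μM, in DMEM plus 10% FBS. Results are categorised by inhibition level: at least 50%, 30 to under 50%, or under 30%.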

HeLa (cervical cancer) = assay: Antiproliferative activity, CCK-8 cell viability; conditions: Homo sapiens, 72 h, read-out: Inhibition of Cancerous Cells, HELA; for inhibition at 3.3 µM: compound concentration of 3.3 μM; for inhibition at 10 µM: compound concentration of 10 μM; for inhibition at 30 µM: compound concentration of 30 μM
HepG2 (liver cancer) = assay: Antiproliferative activity, CCK-8 cell viability; conditions: Homo sapiens, 72 h, read-out: Inhibition of Cancerous Cells, HepG2; for inhibition at 3.3 µM: compound concentration of 3.3 μM; for inhibition at 10 µM: compound concentration of 10 μM; for inhibition at 30 µM: compound concentration of 30 μM
In short: as §1

[1] = tested on: MDA-MB-231 (breast cancer); assay: Antiproliferative activity, CCK-8 cell viability; conditions: Homo sapiens, 72 h, read-out: Inhibition of Cancerous Cells, MDA-MB-231; for inhibition at 3.3 µM: compound concentration of 3.3 μM; for inhibition at 10 µM: compound concentration of 10 μM; for inhibition at 30 µM: compound concentration of 30 μM
In short: as §1

[2] = tested on: A431 (epidermoid carcinoma); assay: Antiproliferative activity, CCK-8 cell viability; conditions: Homo sapiens, A-431, 72 h, read-out: Inhibition of Cancerous Cells, A431; for inhibition at 3.3 µM: compound concentration of 3.3 μM; for inhibition at 10 µM: compound concentration of 10 μM; for inhibition at 30 µM: compound concentration of 30 μM
In short: as §1

[3] = tested on: A549 (lung adenocarcinoma); assay: Antiproliferative activity, CCK-8 cell viability; conditions: Homo sapiens, 72 h, read-out: Inhibition of Cancerous Cells, A549; for inhibition at 3.3 µM: compound concentration of 3.3 μM; for inhibition at 10 µM: compound concentration of 10 μM; for inhibition at 30 µM: compound concentration of 30 μM
[4] = tested on: B16F10 (malignant melanoma); assay: Antiproliferative activity, CCK-8 cell viability; conditions: Mus musculus, B16-F10, 72 h, read-out: Inhibition of Cancerous Cells, B16F10; for inhibition at 3.3 µM: compound concentration of 3.3 μM; for inhibition at 10 µM: compound concentration of 10 μM; for inhibition at 30 µM: compound concentration of 30 μM
In short: as §1

[5] = tested on: alpha-smooth muscle actin (α-SMA); assay: Inhibition of TGF-β induced expression of alpha-smooth muscle actin in CFSC cells (western blot); conditions: compound at 10 μM, TGF-β (10 ng/mL), 24 hours
In short: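 Read-out is percent decrease in α-SMA western-blot band intensity, β-actin also probed, relative to TGF-β-only cells. CFSC cells were co-treated for 24 h at 37 °C with 10 ng/mL TGF-β and 10 μM compound in serum-free DMEM.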

Row | SMILES | inhibition at 3.3 µM (SW480 (colon cancer)) [%] | inhibition at 10 µM (SW480 (colon cancer)) [%] | inhibition at 30 µM (SW480 (colon cancer)) [%] | inhibition at 3.3 µM (HeLa (cervical cancer)) [%] | inhibition at 10 µM (HeLa (cervical cancer)) [%] | inhibition at 30 µM (HeLa (cervical cancer)) [%] | inhibition at 3.3 µM (HepG2 (liver cancer)) [%] | inhibition at 10 µM (HepG2 (liver cancer)) [%] | inhibition at 30 µM (HepG2 (liver cancer)) [%] | inhibition at 3.3 µM [1] [%] | inhibition at 10 µM [1] [%] | inhibition at 30 µM [1] [%] | inhibition at 3.3 µM [2] [%] | inhibition at 10 µM [2] [%] | inhibition at 30 µM [2] [%] | inhibition at 3.3 µM [3] [%] | inhibition at 10 µM [3] [%] | inhibition at 30 µM [3] [%] | inhibition at 3.3 µM [4] [%] | inhibition at 10 µM [4] [%] | further results
1 | CC1=C(CC(=O)O)c2cc(F)ccc2/C1=C\c1cccc(Oc2cccc(C(F)(F)F)c2)c1 [Compound D27, 2-[(1Z)-5-Fluoro-2-methyl-1-({3-[3-trifluoromethylphenoxy]phenyl}-methylidene)-1H-inden-3-yl]acetic acid] | 30 to 50 | ≥ 50 | ≥ 50 | < 30 | 30 to 50 | ≥ 50 | ≥ 50 | ≥ 50 | ≥ 50 | ≥ 50 | ≥ 50 | ≥ 50 | < 30 | ≥ 50 | ≥ 50 | 30 to 50 | 30 to 50 | ≥ 50 | < 30 | 30 to 50 | inhibition at 30 µM [4]: ≥ 50%; inhibition at 10 µM [5]: ≥ 80%
2 | COc1cccc2c1C(CC(=O)O)=C(C)/C2=C/c1ccc(Oc2ccccc2)cc1 [Compound D28, 2-[(1Z)-4-Methoxy-1-(4-(phenoxy)benzylidene)-2-methyl-1H-inden-3-yl]-acetic acid] | ≥ 50 | ≥ 50 | ≥ 50 | < 30 | < 30 | < 30 | ≥ 50 | ≥ 50 | ≥ 50 | 30 to 50 | 30 to 50 | ≥ 50 | ≥ 50 | ≥ 50 | ≥ 50 | 30 to 50 | 30 to 50 | ≥ 50 | 30 to 50 | ≥ 50 | inhibition at 30 µM [4]: ≥ 50%; inhibition at 10 µM [5]: 50 to 80%
3 | O=C(O)CC1=C/C(=C/c2ccc(Oc3ccc(F)cc3)cc2)c2ccc(F)cc21 [Compound D33, 2-[(1Z)-5-Fluoro-1-{[4-(4-fluorophenoxy)phenyl]methylidene}-1H-inden-3-yl]acetic acid] | 30 to 50 | ≥ 50 | ≥ 50 | 30 to 50 | < 30 | ≥ 50 | ≥ 50 | ≥ 50 | ≥ 50 | ≥ 50 | ≥ 50 | ≥ 50 | < 30 | 30 to 50 | ≥ 50 | 30 to 50 | 30 to 50 | ≥ 50 | 30 to 50 | ≥ 50 | inhibition at 30 µM [4]: ≥ 50%; inhibition at 10 µM [5]: < 30%
4 | CC1=C(CC(=O)NO)c2cc(F)ccc2/C1=C\c1ccc(C(C)(C)C)cc1 [Compound D42, (Z)-2-(1-(4-(Tert-butyl)benzylidene)-5-fluoro-2-methyl-1H-inden-3-yl)-N-hydroxyacetamide] | ≥ 50 | ≥ 50 | ≥ 50 | 30 to 50 | ≥ 50 | ≥ 50 | < 30 | 30 to 50 | ≥ 50 | ≥ 50 | ≥ 50 | ≥ 50 | ≥ 50 | ≥ 50 | ≥ 50 | ≥ 50 | ≥ 50 | ≥ 50 | ≥ 50 | ≥ 50 | inhibition at 30 µM [4]: ≥ 50%; inhibition at 10 µM [5]: 50 to 80%
